Measurements: publication PMC3627194, “Xentry, a new class of cell-penetrating peptide uniquely equipped for delivery of drugs” (Scientific Reports, 2013)

Tests used:
HepG2 cells [1] = type: cell-based
Procedure: (§1) HepG2 cells (ATCC, Manassas, VA) were seeded into 8-well chamber slides at 1 × 10^5 cells per well in MEM media (Gibco, Life Technologies New Zealand Ltd) containing 10% FCS and PSG. […] L-isomeric peptides were diluted in 500 μl of MEM media without FCS, whereas D-isomeric peptides were diluted in the same media containing FCS, and each added to cells at a final concentration of 10 μM, or as indicated. The cells were incubated for 3 h at 37°C in a 5% CO2 atmosphere, washed with PBS, fixed with 4% formaldehyde for 30 min, and washed thrice with PBS. A drop of Prolong Gold anti-fade reagent with DAPI (Invitrogen, Life Technologies New Zealand Ltd) was added, and the cells mounted and examined with a Nikon E600 fluorescence microscope or a Leica TCS-SP2 confocal microscope.
Untreated 37°C 4°C deoxyglucose Heparin Chlorpromazine
Supplementary Figure 2. Cellular requirements for internalization of Xentry by HepG2 cells. (a) Incubation of FITC-labelled Xentry with HepG2 cells for 3 h at 4°C, or in the presence of 10 mM sodium azide and 6 mM 2-deoxy-D-glucose, 2 µg/ml heparin, or 10 µg/ml of chlorpromazine, as indicated, inhibited peptide uptake. Cell nuclei were stained blue with DAPI. Scale bar, 50 μm. […]

H441 (lung) = assay: Cell permeability of Xentry, H441 cell line; type: cell-based; conditions: data not shown
HepG2 cells [2] = assay: Assay to test for cell permeability of peptides; type: cell-based; conditions: confocal microscopy
Procedure: Figure 1 Cell-permeability of X-protein peptides. (a) X-protein peptides aa 1–20 and 16–35 are cell-permeable. Four FITC-labelled peptides encompassing aa 1–20, 16–35, 21–40 and 34–53 from the N-terminal region of the X-protein were incubated at 10 μM with HepG2 cells and their uptake by the cells recorded by confocal microscopy. Cell nuclei were stained blue with DAPI. (b) The sequence of the first 35 N-terminal residues of the HBV X-protein are shown with the sequence of Xentry (LCLRPVG; residues 16–22) highlighted in red. Short FITC-labelled peptides (10 μM) aa 16–26, 16–24 and 16–22 (Xentry) derived from peptide aa 16–35 also permeate HepG2 cells (upper panel). […] Cell nuclei were stained blue with DAPI. […] Cell nuclei were stained blue with DAPI. Scale bar, 50 μm.
as §1
(§2) Supplementary Figure 3. The D-isomeric form of Xentry aa 16-22 is cell permeable, and is stable in serum for at least 4 h.
(§3) (a) FITC-labelled D-isomeric Xentry was incubated with HepG2 cells at concentrations of […] for 3 h.
(§4) Uptake was recorded by fluorescence microscopy. Cell nuclei were stained with DAPI. (b) FITC-labelled L-isomeric and D-isomeric forms of Xentry were incubated in serum for 0, 1, and 4 h before incubation with HepG2 cells. Cell nuclei were stained with DAPI. Scale bar, 50 μm. […]

[3] = type: in vitro ADME; conditions: FITC-labelled peptide incubated in serum 0, 1 and 4 h, then incubated with HepG2 cells; read-out cell uptake by fluorescence microscopy
Procedure: as §2, §3, §4

mouse TK-1 T cells = type: cell-based; conditions: non-adherent mouse TK-1 T cells, FITC-labelled Xentry (LCLRPVG), fluorescence microscopy
Procedure: (§5) K562 cells TK-1 cells Activated TK-1 cells
(§6) Supplementary Figure 1. […] FITC- […]
(§7) labelled Xentry (LCLRPVG; aa 16-22) was incubated with non-adherent K562 erythroleukemia cells and mouse TK-1 T cells and with Mn++-activated TK-1 cells attached to MAdCAM-1-coated plates. Cell uptake was recorded by fluorescence microscopy. Cell nuclei were stained blue with DAPI. Plates were coated with 1 µg/ml of MAdCAM-1 overnight and activated TK-1 cells were allowed to bind to the plates for 45 mins before incubation with FITC-labelled Xentry for 3 h. Scale bar represents […]

[4] = system: K562 erythroleukemia cells; type: cell-based; conditions: non-adherent K562 erythroleukemia cells, FITC-labelled Xentry (LCLRPVG), fluorescence microscopy
Procedure: as §5, §6, §7

[5] = system: human peripheral blood lymphocytes; assay: Uptake of Xentry by non-adherent blood lymphocytes; type: cell-based; conditions: FITC-labelled Xentry 10 μM
BT474 (breast) = assay: Cell permeability of Xentry, BT474 cell line; type: cell-based; conditions: data not shown
[6] = system: Mn++-activated adherent TK-1 T cells bound to MAdCAM-1-coated plates; type: cell-based, mouse; conditions: Mn++-activated TK-1 cells bound via α4β7 to plates coated with 1 µg/ml MAdCAM-1, FITC-labelled Xentry 3 h
Procedure: as §5, §6, §7

erythrocytes = assay: Uptake of Xentry by erythrocytes; type: cell-based, human; conditions: FITC-labelled Xentry 10 μM
[7] = Acute toxicity after intravenous injection; type: in vivo; conditions: very high concentrations, single injection into the circulation
[8] = system: peripheral blood monocytes attached to plastic; assay: Uptake of Xentry by adherent blood monocytes; type: cell-based, human; conditions: FITC-labelled Xentry 10 μM
Cos (kidney) = assay: Cell permeability of Xentry, Cos cell line; type: cell-based; conditions: data not shown
C32 (melanoma) = assay: Cell permeability of Xentry, C32 cell line; type: cell-based; conditions: data not shown
[9] = system: Rin-m5F (pancreatic β-cell); assay: Cell permeability of Xentry, Rin-m5F cell line; type: cell-based; conditions: data not shown
DU145 (prostate) = assay: Cell permeability of Xentry, DU145 cell line; type: cell-based; conditions: data not shown

Substance: LCLRPVG [Xentry, 7 amino acid residue peptide LCLRPVG (residues 16–22) of the HBV X-protein; FITC-labelled in uptake tests]
- Internalization by HepG2 cells at 4°C (HepG2 cells [1]; FITC-labelled Xentry, 3 h, 4°C): not at 4 °C
- Internalization by HepG2 cells at 37°C (HepG2 cells [1]; FITC-labelled Xentry, 3 h, 37°C): internalized
- Uptake in the presence of heparin (HepG2 cells [1]; HepG2, 2 µg/ml heparin, 3 h): blocked
- Uptake in the presence of chlorpromazine (HepG2 cells [1]; HepG2, 10 µg/ml chlorpromazine (clathrin pathway inhibitor), 3 h): blocked
- Uptake after pretreatment with azide and deoxyglucose (HepG2 cells [1]; HepG2, 10 mM sodium azide and 6 mM 2-deoxy-D-glucose, 3 h): blocked
- Effect of cytochalasin D on uptake (HepG2 cells [1]; HepG2, data not shown): without effect
- Effect of filipin on uptake (HepG2 cells [1]; HepG2, data not shown): without effect
- Cell permeability (H441 (lung)): capable of permeating
- Cell permeability (uptake by HepG2 cells) (HepG2 cells [2]; FITC-labelled L-isomeric peptide 10 μM, MEM without FCS, 3 h, 37°C, cells fixed): cell-permeable
- Subcellular localisation after uptake (HepG2 cells [2]; FITC-labelled peptide 10 μM, HepG2 cells, DAPI): taken up into the cytoplasm and nucleus
- Time to inactivation in serum [3]: ≤ 1 h
- Cell permeability (mouse TK-1 T cells): incapable of permeating
- Cell permeability [4]: incapable of permeating
- Cell permeability [5]: incapable of permeating
- Cell permeability (BT474 (breast)): capable of permeating
- Cell uptake [6]: taken up
- Cell permeability (erythrocytes): incapable of permeating
- Acute toxicity [7]: no signs of acute toxicity
- Cell uptake [8]: taken up
- Cell permeability (Cos (kidney)): capable of permeating
- Cell permeability (C32 (melanoma)): capable of permeating
- Cell permeability [9]: capable of permeating
- Cell permeability (DU145 (prostate)): capable of permeating
